From PubChem BioAssay (NCI)
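Assay format: 96-well plates, 48-hour exposure. At the TGI there is no net growth.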

Tests used:
Test in all cases: growth of human tumour cells (NCI), 48 h
M14 melanoma = test system: M14 melanoma
786-0 renal = test system: 786-0 renal
LOX IMVI melanoma = test system: LOX IMVI melanoma
UO-31 renal = test system: UO-31 renal
SNB-19 CNS = test system: SNB-19 CNS
A498 renal = test system: A498 renal
MALME-3M melanoma = test system: MALME-3M melanoma
SN12C renal = test system: SN12C renal
OVCAR-3 ovarian = test system: OVCAR-3 ovarian
CCRF-CEM leukemia = test system: CCRF-CEM leukemia
HL-60(TB) leukemia = test system: HL-60(TB) leukemia
OVCAR-5 ovarian = test system: OVCAR-5 ovarian
SF-268 CNS = test system: SF-268 CNS
NCI-H226 lung = test system: NCI-H226 lung
HT29 colon = test system: HT29 colon
EKVX NSCLC = test system: EKVX NSCLC
UACC-62 melanoma = test system: UACC-62 melanoma
SK-MEL-28 melanoma = test system: SK-MEL-28 melanoma
BT-549 breast = test system: BT-549 breast
K-562 leukemia = test system: K-562 leukemia
SW-620 colon = test system: SW-620 colon
SF-539 CNS = test system: SF-539 CNS
NCI/ADR-RES ovarian = test system: NCI/ADR-RES ovarian
U251 CNS = test system: U251 CNS
ACHN renal = test system: ACHN renal
SNB-75 CNS = test system: SNB-75 CNS
MCF7 breast = test system: MCF7 breast
SK-MEL-5 melanoma = test system: SK-MEL-5 melanoma
A549 NSCLC = test system: A549 NSCLC
MDA-MB-231 breast = test system: MDA-MB-231 breast
SK-OV-3 ovarian = test system: SK-OV-3 ovarian
RXF 393 renal = test system: RXF 393 renal
TK-10 renal = test system: TK-10 renal
RPMI-8226 leukemia = test system: RPMI-8226 leukemia
SF-295 CNS = test system: SF-295 CNS
NCI-H460 lung = test system: NCI-H460 lung
IGROV1 ovarian = test system: IGROV1 ovarian
MDA-N = test system: MDA-N
MDA-MB-435 = test system: MDA-MB-435
T-47D breast = test system: T-47D breast
HS 578T breast = test system: HS 578T breast
OVCAR-4 ovarian = test system: OVCAR-4 ovarian
SK-MEL-2 melanoma = test system: SK-MEL-2 melanoma
MOLT-4 leukemia = test system: MOLT-4 leukemia
HOP-62 NSCLC = test system: HOP-62 NSCLC
HCT-15 colon = test system: HCT-15 colon
NCI-H23 lung = test system: NCI-H23 lung
NCI-H522 lung = test system: NCI-H522 lung
OVCAR-8 ovarian = test system: OVCAR-8 ovarian
DU-145 prostate = test system: DU-145 prostate
PC-3 prostate = test system: PC-3 prostate
HCC-2998 colon = test system: HCC-2998 colon
KM12 colon = test system: KM12 colon
UACC-257 melanoma = test system: UACC-257 melanoma
HCT-116 colon = test system: HCT-116 colon
COLO 205 colon = test system: COLO 205 colon
CAKI-1 renal = test system: CAKI-1 renal
SR leukemia = test system: SR leukemia
HOP-92 NSCLC = test system: HOP-92 NSCLC

Measured: TGI

C#CCN(C(=O)C(F)(F)F)C(/C=C\C(=O)OC)(C(=O)OCC)C(=O)OCC
not listed: UACC-257 melanoma | HCT-116 colon | COLO 205 colon | CAKI-1 renal | SR leukemia | HOP-92 NSCLC
> 100 µM: all other assays above

COC(=O)C1=C(OC)C(=P2(c3ccccc3)CC(c3ccccc3)=C2c2ccccc2)C(C(=O)OC)=C1C(=O)OC (stereo not drawn)
> 51.5 µM: T-47D breast
> 76 µM: TK-10 renal
> 81.9 µM: SK-MEL-5 melanoma
> 78.2 µM: MALME-3M melanoma
13.6 µM: NCI-H522 lung
> 82.6 µM: MCF7 breast
13.8 µM: MOLT-4 leukemia
> 62.7 µM: HCT-15 colon
> 31.2 µM: RPMI-8226 leukemia
4.74 µM: CCRF-CEM leukemia
> 95.5 µM: SF-539 CNS
> 93.6 µM: CAKI-1 renal
> 50.5 µM: COLO 205 colon
3.22 µM: HL-60(TB) leukemia
> 81.7 µM: NCI-H460 lung
not listed: A498 renal | HT29 colon | K-562 leukemia | SR leukemia | HOP-92 NSCLC
> 100 µM: all other assays above

COC(=O)C1CC2CC1C1C2SC(F)(F)C1(F)F (stereo not drawn)
not listed: CCRF-CEM leukemia | HL-60(TB) leukemia | HT29 colon | BT-549 breast | K-562 leukemia | NCI-H23 lung | HOP-92 NSCLC
> 100 µM: all other assays above

CCOC(=O)c1nc2ccc(C(F)(F)F)cc2nc1Oc1ccc(OC)cc1
not listed: HL-60(TB) leukemia | NCI-H23 lung | NCI-H522 lung | HCC-2998 colon | SR leukemia
> 100 µM: all other assays above
